Assay results: patent US3988476A, “Pharmaceutical compositions and methods of treating allergic conditions utilizing 2-nitroindane-1,3-dione derivatives as the active agent” (Beecham Group Limited, priority 1972, dated 1976)

System: PCA response
Experiment: Rat Passive Cutaneous Anaphylaxis (PCA) test, ovalbumin challenge
Format: in vivo, Wistar rats
Conditions: for % Inhibition of PCA response: 34 mg/kg
Protocol: All of the 2-nitro indane-1,3-dione prepared in the preceding Examples were submitted for biological testing. The test system was the Rat Passive Cutaneous Anaphylaxis (PCA) test described below in (ii).
Male Wister rats of 250- 300 g, were injected intraperitoneally with 0.5 ml of Bordatella pertussis vaccine (containing 4× 10^10 dead organism per ml) and subcutaneously with 0.5 ml of an emulsion of 100 mg. of ovalbumin in 2 ml of saline and 3 ml of incomplete Freunds' adjuvant. Rats were bled by cardiac puncture on day 18, the blood was pooled and separated and serum stored at -20° and thawed only once before use.
0.1 ml of each of six twofold serial dilutions of the serum in 0.9% saline were injected intradermally into separate sites on the shaved dorsal surface of 250-350 g. Wistar rats. 72 hours later the animals were challenged by i.v. injection of 0.3 ml of 1% ovalbumin mixed with 0.1 ml of a 5% solution of pontamine sky blue dye both in isotonic saline buffered with pH. 7.2 Sorenson buffer (P.B.S.). The rats were killed after 20 minutes and the diameter of the blue wheals at the antibody injection sites were measured. The starting dilution of the serum was adjusted so that there was no response, after challenge, at the site of injection of the highest dilution and a maximum response at the lowest dilution.
Amounts of the compounds were administered to rats each amount to a test group of six animals at a specified time prior to intravenous challenge with ovalbumin.
For those compounds having insoluble sodium salts, the salts were isolated by reaction of the free nitro compound with 2.5N sodium hydroxide and the filtered sodium washed free of alkali with water. The dried salts were then administered as a suspension in 1% methyl cellulose.

[1] = 25 mg/kg, 0 min between dosing and challenge, suspension of Na salt in 1% methyl cellulose
[2] = 25 mg/kg, 60 min between dosing and challenge, suspension of Na salt in 1% methyl cellulose
[3] = 100 mg/kg, 0 min between dosing and challenge, suspension of Na salt in 1% methyl cellulose
[4] = 100 mg/kg, 60 min between dosing and challenge, suspension of Na salt in 1% methyl cellulose
[5] = 25 mg/kg, 0 min between dosing and challenge, solution of Na salt
[6] = 25 mg/kg, 30 min between dosing and challenge, solution of Na salt
[7] = 25 mg/kg, 60 min between dosing and challenge, solution of Na salt
[8] = 100 mg/kg, 0 min between dosing and challenge, solution of Na salt
[9] = 100 mg/kg, 60 min between dosing and challenge, solution of Na salt
[10] = 100 mg/kg, 30 min between dosing and challenge, solution of Na salt

| SMILES | % INHIBITION OF PCA RESPONSE [1] [%] | % INHIBITION OF PCA RESPONSE [2] [%] | % INHIBITION OF PCA RESPONSE [3] [%] | % INHIBITION OF PCA RESPONSE [4] [%] | % INHIBITION OF PCA RESPONSE [5] [%] | % INHIBITION OF PCA RESPONSE [6] [%] | % INHIBITION OF PCA RESPONSE [8] [%] | % INHIBITION OF PCA RESPONSE [10] [%] | further results |
| --- | --- | --- | --- | --- | --- | --- | --- | --- | --- |
| Cc1cccc2c1C(=O)C([N+](=O)[O-])C2=O (stereo not drawn) [4-methyl-2-nitroindane-1,3-dione, 4-Methyl-2-nitroindane-1,3-dione] | 2 | 33 | 6 | 57 | – | – | – | – | – |
| Cc1cc(C)c2c(c1)C(=O)C([N+](=O)[O-])C2=O (stereo not drawn) [4,6-dimethyl-2-nitroindane-1,3-dione, 4,6-Dimethyl-2-nitro-indane-1,3-dione] | – | – | – | – | 58 | 27 | – | – | – |
| O=C1c2cccc(-c3ccccc3)c2C(=O)C1[N+](=O)[O-] (stereo not drawn) [2-nitro-4-phenyl indane 1,3 indione, 2-Nitro-4-Phenyl indane-1,3-dione] | – | – | – | – | 12 | – | 8 | – | % INHIBITION OF PCA RESPONSE [7]: 22%; % INHIBITION OF PCA RESPONSE [9]: 24% |
| O=C1c2ccc3ccccc3c2C(=O)C1[N+](=O)[O-] (stereo not drawn) [2-nitrobenz(e) indane-1,3-dione, 2-Nitro benz(e)indane-1,3-dione] | 16 | 50 | 13 | 47 | – | – | – | – | – |
| CCc1cccc2c1C(=O)C([N+](=O)[O-])C2=O (stereo not drawn) [4-ethyl-2-nitroindane-1,3-dione, 4-Ethyl-2-nitro indane-1,3-dione] | -5 | 23 | 1 | 25 | – | – | – | – | – |
| O=C1c2ccc3c(c2C(=O)C1[N+](=O)[O-])CCCC3 (stereo not drawn) [4,5-cyclohexano 2-nitroindane 1,3-dione, 4,5-Cyclohexano-2-nitroindane-1,3-dione] | – | – | – | – | – | – | – | – | % Inhibition of PCA response (0 min between dosing and challenge, suspension of Na salt in 1% methyl cellulose): 7%; % Inhibition of PCA response (60 min between dosing and challenge, suspension of Na salt in 1% methyl cellulose): 32% |
| O=C1c2cccc(F)c2C(=O)C1[N+](=O)[O-] (stereo not drawn) [4-fluoro-2-nitroindane-1,3-dione, 4-Fluoro-2-nitro indane-1,3-dione] | – | – | – | – | 48 | 8 | 86 | 30 | – |
| CCCCOc1cccc2c1C(=O)C([N+](=O)[O-])C2=O (stereo not drawn) [4-n-butyloxy-2-nitroindane 1,3-dione, 4-n-Butyloxy-2-nitro indane-1,3-dione] | – | – | – | – | 29 | – | 63 | – | % INHIBITION OF PCA RESPONSE [7]: 43%; % INHIBITION OF PCA RESPONSE [9]: 50% |
| O=C1c2c(Cl)c(Cl)c(Cl)c(Cl)c2C(=O)C1[N+](=O)[O-] [2-Nitro-4,5,6,7-tetrachloro indane-1,3-dione] | – | – | – | – | -13 | – | -3 | – | % INHIBITION OF PCA RESPONSE [7]: 9%; % INHIBITION OF PCA RESPONSE [9]: 7% |
| O=C1c2cc3ccccc3cc2C(=O)C1[N+](=O)[O-] [2-nitro-benz[f] indane 1,3-dione, 2-Nitro benz[f] indane-1,3-dione] | 100 | 37 | 100 | 72 | – | – | – | – | – |
| CCOc1cccc2c1C(=O)C([N+](=O)[O-])C2=O (stereo not drawn) [4-ethoxy-2-nitroindane-1,3-dione, 4-Ethoxy-2-nitro indane-1,3-dione] | – | – | – | – | 13 | 68 | 76 | 55 | – |
| O=C1c2ccc(Br)cc2C(=O)C1[N+](=O)[O-] (stereo not drawn) [5-bromo-2-nitroindane-1,3-dione, 5-Bromo-2-nitro indane-1,3-dione] | – | – | – | – | 46 | – | 30 | – | % INHIBITION OF PCA RESPONSE [7]: 87%; % INHIBITION OF PCA RESPONSE [9]: 64% |
| CC(C)COc1cccc2c1C(=O)C([N+](=O)[O-])C2=O (stereo not drawn) [4-isobutyloxy-2-nitroindane 1,3-dione, 4-Isobutyloxy-2-nitro indane-1,3-dione] | – | – | – | – | 61 | 28 | 78 | 41 | – |
| COc1cccc2c1C(=O)C([N+](=O)[O-])C2=O (stereo not drawn) [4-methoxy-2-nitroindane-1,3-dione, 4-Methoxy-2-nitro indane-1,3-dione] | -2 | 25 | 18 | 36 | – | – | – | – | – |
| CCCOc1cccc2c1C(=O)C([N+](=O)[O-])C2=O (stereo not drawn) [4-n-propyloxy 2-nitroindane 1,3-dione, 2-Nitro-4-n-Propyloxy indane-1,3-dione] | – | – | – | – | 77 | 37 | 30 | 37 | – |
| Cc1cc2c(cc1C)C(=O)C([N+](=O)[O-])C2=O [5,6-dimethyl-2-nitroindane-1,3-dione, 5,6-Dimethyl-2-nitro-indane-1,3-dione] | 92 | 48 | 73 | 54 | – | – | – | – | – |
| O=C1c2ccc(-c3ccccc3)cc2C(=O)C1[N+](=O)[O-] (stereo not drawn) [2-nitro-5-phenyl indane-1,3-dione, 2-Nitro-5-phenyl indane-1,3-dione] | 58 | 56 | 82 | 36 | – | – | – | – | – |
| Cc1ccc2c(c1)C(=O)C([N+](=O)[O-])C2=O (stereo not drawn) [5-methyl-2-nitroindane-1,3-dione, 5-Methyl-2-nitroindane-1,3-dione] | – | – | – | – | 66 | 44 | 100 | 47 | – |
| COc1cc(C)cc2c1C(=O)C([N+](=O)[O-])C2=O (stereo not drawn) [4-Methoxy-6-methyl-2-nitro indane-1,3-dione] | – | – | – | – | 34 | 31 | 80 | 24 | – |
| CC(C)Oc1cccc2c1C(=O)C([N+](=O)[O-])C2=O (stereo not drawn) [4-isopropyloxy-2-nitroindane 1,3-dione, 4Isopropyloxy-2-nitro-indane-1,3-dione] | 23 | – | 49 | – | – | – | – | – | % INHIBITION OF PCA RESPONSE (25 mg/kg, 30 min between dosing and challenge, suspension of Na salt in 1% methyl cellulose): 36%; % INHIBITION OF PCA RESPONSE (100 mg/kg, 30 min between dosing and challenge, suspension of Na salt in 1% methyl cellulose): 51% |
| CCc1cc(OC)c2c(c1)C(=O)C([N+](=O)[O-])C2=O (stereo not drawn) [6-Ethyl-4-methoxy-2-nitro indane-1,3-dione] | – | – | – | – | 66 | 37 | 91 | 32 | – |
| Cc1ccc(C)c2c1C(=O)C([N+](=O)[O-])C2=O [4,7-dimethyl-2-nitroindane-1,3-dione, 4,7-Dimethyl-2-nitro-indane-1,3-dione] | 35 | 16 | 46 | 8 | – | – | – | – | – |
| O=C1c2cccc(Br)c2C(=O)C1[N+](=O)[O-] (stereo not drawn) [4-bromo-2-nitroindane-1,3-dione, 4-Bromo-2-nitro indane-1,3dione] | 8 | 24 | -4 | 70 | – | – | – | – | – |
| O=C1c2ccc3c(c2C(=O)C1[N+](=O)[O-])CCC3 (stereo not drawn) [4,5-cyclopentano 2-nitroindane 1,3-dione, 4,5-Cyclopentano-2-nitro indane-1,3-dione] | 5 | 34 | 26 | 28 | – | – | – | – | – |
| COc1ccc(C)c2c1C(=O)C([N+](=O)[O-])C2=O (stereo not drawn) [4-Methoxy-7-methyl-2-nitro indane1,3-dione] | – | – | – | – | 34 | 62 | 36 | 44 | – |
